Molecular target: T1, Cholesteryl ester transfer protein (Homo sapiens, UniProt P11597)
T1 sequence (P11597 whole entry): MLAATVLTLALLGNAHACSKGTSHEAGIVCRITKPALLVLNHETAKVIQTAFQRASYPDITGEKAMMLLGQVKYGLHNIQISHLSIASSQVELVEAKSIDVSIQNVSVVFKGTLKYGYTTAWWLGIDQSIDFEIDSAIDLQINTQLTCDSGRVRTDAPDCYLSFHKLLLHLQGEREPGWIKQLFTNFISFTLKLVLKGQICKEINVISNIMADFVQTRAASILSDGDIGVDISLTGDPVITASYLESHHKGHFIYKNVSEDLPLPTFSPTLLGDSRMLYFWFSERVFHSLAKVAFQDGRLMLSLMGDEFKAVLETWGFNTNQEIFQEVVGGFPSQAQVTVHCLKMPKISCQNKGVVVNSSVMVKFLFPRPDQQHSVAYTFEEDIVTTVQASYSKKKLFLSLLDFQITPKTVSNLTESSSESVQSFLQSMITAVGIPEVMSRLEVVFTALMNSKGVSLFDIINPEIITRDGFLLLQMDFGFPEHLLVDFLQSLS
Assay: Inhibition of CETP

IC50 [nM] | Compound
50000 | OC(CN(Cc1cccc(OC(F)(F)F)c1)c1cccc(Oc2ccccc2)c1)c1ccccc1 (centres undefined)
80 | OC(CN(Cc1cccc(OC(F)(F)C(F)F)c1)c1cccc(Oc2ccc(F)c(F)c2)c1)C(F)(F)F (centres undefined)
70 | Cc1cc(C)cc(Oc2cccc(CN(CC(O)C(F)(F)F)c3cccc(Oc4ccccc4)c3)c2)c1 (centres undefined)
3600 | CCCCC(O)CN(Cc1cccc(OC(F)(F)F)c1)c1cccc(Oc2ccccc2)c1 (centres undefined)
30 | OC(CN(Cc1cccc(OC(F)(F)C(F)F)c1)c1cccc(Oc2cccc(CC(F)(F)F)c2)c1)C(F)(F)F (centres undefined)
4080 | OC(CN(Cc1cccc(-c2cccc(C(F)(F)F)n2)c1)c1cccc(Oc2ccccc2)c1)C(F)(F)F (centres undefined)
15000 | Cc1cccc(-c2cccc(CN(CC(O)C(F)(F)F)c3cccc(Oc4ccccc4)c3)c2)n1 (centres undefined)
100 | CC(C)(C)c1cccc(Oc2cccc(N(Cc3cccc(OC(F)(F)C(F)F)c3)CC(O)C(F)(F)F)c2)c1 (centres undefined)

The next lines start with the compound.

Compound | IC50 [nM]
OC(CN(Cc1cccc2c1OC(F)(F)C(F)(F)O2)c1cccc(Oc2ccccc2)c1)C(F)(F)F (centres undefined) | 12000
OC(CN(Cc1cccc(OC(F)(F)C(F)F)c1)c1cccc(OCc2ccccc2CC(F)(F)F)c1)C(F)(F)F (centres undefined) | 90
CCCCc1ccc(Oc2cccc(N(Cc3cccc(OC(F)(F)C(F)F)c3)CC(O)C(F)(F)F)c2)cc1 (centres undefined) | 200
OC(CN(Cc1cccc(OC(F)(F)C(F)F)c1)c1cccc(OCc2ccccc2OC(F)(F)F)c1)C(F)(F)F (centres undefined) | 60
CC(C)(O)c1cccc(N(Cc2cccc(OC(F)(F)C(F)F)c2)CC(O)C(F)(F)F)c1 (centres undefined) | 7800
OC(CN(Cc1cccc(OC(F)(F)C(F)F)c1)c1cccc(-c2ccncc2)c1)C(F)(F)F (centres undefined) | 6240
